Test results as given in PubChem BioAssay AID212 (DTP/NCI, 2004).
“And” between values parts separate entries of the source, which are not always exact repeats. Equal entries are not always repeated. Inconclusive results are not listed.

System: BDF1 mice, colon carcinoma 38 sc, T/C %
Test: NCI In Vivo Anticancer Drug Screen. Data for tumor model Colon Carcinoma 38 (subcutaneous) in B6D2F1 (BDF1) mice
Method in brief: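 T/C readout: treated group (T) measurement over vehicle control group (C) measurement. Endpoint is survival or tumor size in mice bearing a transplanted tumor.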

## CCCCCCCCCCCC(=O)NC1CC(O[C@H]2C[C@](O)(C(=O)CO)Cc3c(O)c4c(c(O)c32)C(=O)c2c(OC)cccc2C4=O)OC(C)C1O (stereo partly specified)
endpoint: median survival time, dose: 17.0 mg/kg/injection, schedule: Q07DX003 (iv), vehicle: saline, higher = longer survival
  T/C: 97 % of control
endpoint: median survival time, dose: 43.0 mg/kg/injection, schedule: Q07DX003 (iv), vehicle: saline, higher = longer survival
  T/C: 123 % of control
endpoint: median survival time, dose: 70.0 mg/kg/injection, schedule: Q07DX003 (iv), vehicle: saline, higher = longer survival
  T/C: 103 % of control
endpoint: median tumor weight (est.), dose: 28.7 mg/kg/injection, schedule: Q07DX002 (ip), vehicle: distilled water + Tween-80, higher = larger tumour
  T/C: 96 % of control
endpoint: median tumor weight (est.), dose: 56.3 mg/kg/injection, schedule: Q07DX002 (ip), vehicle: distilled water + Tween-80, higher = larger tumour
  T/C: 101 % of control

## CCC1OCC(C(Cl)CCl)O1 (stereo unspecified)
endpoint: median tumor weight (est.), dose: 12.5 mg/kg/injection, schedule: Q07DX002 (ip), vehicle: Klucel (hydroxypropylcellulose) (HPC), higher = larger tumour
  T/C: 101 % of control
endpoint: median tumor weight (est.), dose: 12.5 mg/kg/injection, schedule: Q07DX003 (ip), vehicle: Klucel (hydroxypropylcellulose) (HPC), higher = larger tumour
  T/C: 82 % of control
endpoint: median tumor weight (est.), dose: 25.0 mg/kg/injection, schedule: Q07DX002 (ip), vehicle: Klucel (hydroxypropylcellulose) (HPC), higher = larger tumour
  T/C: 95 % of control and 96 % of control
endpoint: median tumor weight (est.), dose: 25.0 mg/kg/injection, schedule: Q07DX003 (ip), vehicle: Klucel (hydroxypropylcellulose) (HPC), higher = larger tumour
  T/C: 96 % of control
endpoint: median tumor weight (est.), dose: 50.0 mg/kg/injection, schedule: Q07DX003 (ip), vehicle: Klucel (hydroxypropylcellulose) (HPC), higher = larger tumour
  T/C: 92 % of control
endpoint: median tumor weight (est.), dose: 100.0 mg/kg/injection, schedule: Q07DX003 (ip), vehicle: Klucel (hydroxypropylcellulose) (HPC), higher = larger tumour
  T/C: 69 % of control
endpoint: median tumor weight (est.), dose: 200.0 mg/kg/injection, schedule: Q07DX002 (ip), vehicle: Klucel (hydroxypropylcellulose) (HPC), higher = larger tumour
  T/C: 203 % of control
endpoint: median tumor weight (est.), dose: 200.0 mg/kg/injection, schedule: Q07DX003 (ip), vehicle: Klucel (hydroxypropylcellulose) (HPC), higher = larger tumour
  T/C: 67 % of control
endpoint: median tumor weight (est.), dose: 400.0 mg/kg/injection, schedule: Q07DX003 (ip), vehicle: Klucel (hydroxypropylcellulose) (HPC), higher = larger tumour
  T/C: 39 % of control

## C=C1CCOC2(C(O)C(C)(O)CO)NC(=O)C1(O)NC2=O (stereo unspecified)
endpoint: median tumor weight (est.), dose: 225.0 mg/kg/injection, schedule: Q07DX002 (ip), vehicle: saline, higher = larger tumour
  T/C: 104 % of control
endpoint: median tumor weight (est.), dose: 450.0 mg/kg/injection, schedule: Q07DX002 (ip), vehicle: saline, higher = larger tumour
  T/C: 74 % of control
endpoint: median tumor weight (est.), dose: 900.0 mg/kg/injection, schedule: Q07DX002 (ip), vehicle: saline, higher = larger tumour
  T/C: 81 % of control
endpoint: median tumor weight (est.), dose: 1800.0 mg/kg/injection, schedule: Q07DX002 (ip), vehicle: saline, higher = larger tumour
  T/C: 46 % of control

## Nc1nnc[se]1
endpoint: median tumor weight (est.), dose: 6.25 mg/kg/injection, schedule: Q07DX002 (ip), vehicle: saline with Tween-80, higher = larger tumour
  T/C: 79 % of control and 100 % of control
endpoint: median tumor weight (est.), dose: 12.5 mg/kg/injection, schedule: Q07DX002 (ip), vehicle: saline with Tween-80, higher = larger tumour
  T/C: 66 % of control and 73 % of control
endpoint: median tumor weight (est.), dose: 25.0 mg/kg/injection, schedule: Q07DX002 (ip), vehicle: saline with Tween-80, higher = larger tumour
  T/C: 86 % of control and 89 % of control
endpoint: median tumor weight (est.), dose: 200.0 mg/kg/injection, schedule: Q07DX002 (ip), vehicle: saline with Tween-80, higher = larger tumour
  T/C: 50 % of control

## Cc1ccccc1SSc1ccccc1C
endpoint: median tumor weight (est.), dose: 25.0 mg/kg/injection, schedule: Q07DX003 (ip), vehicle: other, higher = larger tumour
  T/C: 92 % of control
endpoint: median tumor weight (est.), dose: 25.0 mg/kg/injection, schedule: Q07DX003 (ip), vehicle: saline with Tween-80, higher = larger tumour
  T/C: 96 % of control
endpoint: median tumor weight (est.), dose: 50.0 mg/kg/injection, schedule: Q07DX003 (ip), vehicle: other, higher = larger tumour
  T/C: 123 % of control
endpoint: median tumor weight (est.), dose: 50.0 mg/kg/injection, schedule: Q07DX003 (ip), vehicle: saline with Tween-80, higher = larger tumour
  T/C: 88 % of control
endpoint: median tumor weight (est.), dose: 100.0 mg/kg/injection, schedule: Q07DX003 (ip), vehicle: other, higher = larger tumour
  T/C: 89 % of control
endpoint: median tumor weight (est.), dose: 100.0 mg/kg/injection, schedule: Q07DX003 (ip), vehicle: saline with Tween-80, higher = larger tumour
  T/C: 62 % of control
endpoint: median tumor weight (est.), dose: 200.0 mg/kg/injection, schedule: Q07DX003 (ip), vehicle: other, higher = larger tumour
  T/C: 84 % of control
endpoint: median tumor weight (est.), dose: 200.0 mg/kg/injection, schedule: Q07DX003 (ip), vehicle: saline with Tween-80, higher = larger tumour
  T/C: 74 % of control

## COC(=O)C(N)CCCCNc1ccc2c(cc1=O)C(NC(C)=O)CCc1cc(OC)c(OC)c(OC)c1-2 (stereo unspecified)
endpoint: median tumor weight (est.), dose: 287.0 mg/kg/injection, schedule: Q07DX002 (ip), vehicle: saline, higher = larger tumour
  T/C: 78 % of control

## N=C(N)Sc1ccccn1
endpoint: median tumor weight (est.), dose: 100.0 mg/kg/injection, schedule: Q07DX003 (ip), vehicle: saline, higher = larger tumour
  T/C: 94 % of control
endpoint: median tumor weight (est.), dose: 200.0 mg/kg/injection, schedule: Q07DX003 (ip), vehicle: saline, higher = larger tumour
  T/C: 81 % of control
endpoint: median tumor weight (est.), dose: 400.0 mg/kg/injection, schedule: Q07DX003 (ip), vehicle: saline, higher = larger tumour
  T/C: 88 % of control and 108 % of control

## O=NN(CCCl)C(=O)NC1OC(CO)C(O)C(O)C1O (stereo unspecified)
endpoint: median tumor weight (est.), dose: 2.5 mg/kg/injection, schedule: Q07DX002 (ip), vehicle: saline, higher = larger tumour
  T/C: 114 % of control and 96 % of control
endpoint: median tumor weight (est.), dose: 8.0 mg/kg/injection, schedule: Q07DX002 (ip), vehicle: saline, higher = larger tumour
  T/C: 88 % of control and 92 % of control
endpoint: median tumor weight (est.), dose: 16.0 mg/kg/injection, schedule: Q07DX002 (ip), vehicle: saline, higher = larger tumour
  T/C: 34 % of control and 58 % of control

## N#Cc1cn(C2OC(CO)C(O)C2O)c2ncnc(N)c12 (stereo unspecified)
endpoint: median tumor weight (est.), dose: 0.12 mg/kg/injection, schedule: Q07DX002 (ip), vehicle: saline, higher = larger tumour
  T/C: 91 % of control
endpoint: median tumor weight (est.), dose: 0.25 mg/kg/injection, schedule: Q07DX002 (ip), vehicle: saline, higher = larger tumour
  T/C: 77 % of control
endpoint: median tumor weight (est.), dose: 1.0 mg/kg/injection, schedule: Q07DX002 (ip), vehicle: saline, higher = larger tumour
  T/C: 86 % of control
endpoint: median tumor weight (est.), dose: 2.0 mg/kg/injection, schedule: Q07DX002 (ip), vehicle: saline, higher = larger tumour
  T/C: 59 % of control
